{"source": "patent US10143688B2", "about": "“Mesylic acid salt of acylthiourea compound, crystal of the same, and process for producing these” (priority 2015, dated 2018)", "key": {"[1]": {"experiment": "Solid stability test (purity by liquid chromatography, XRD, TG-DTA after storage)", "type": "physicochemical", "settings": "1 month at 40° C. (open system), 40° C. (humidity, 75%), or 60° C. (open system)", "method": "An examination by liquid chromatography was made under the following test conditions.\nApparatus: Hitachi L-2455\nMobile phase A: 10 mM aqueous Na2HPO4 solution (pH, 6.5)\nMobile phase B: acetonitrile\nColumn: GL Science Inertsil ODS-3; 4.6×150 mm; S=5 μm\nMeasuring wavelength: 220 nm\n(open system), 40° C. (humidity, 75%), or 60° C. (open system). Thereafter, the crystals were examined for purity by liquid chromatography. As a result, the change in purity through the test was 0.1% or less under all those conditions."}, "[2]": {"experiment": "Solubility measurement (solubility measuring method of The Japanese Pharmacopoeia)", "settings": "37° C."}}}
{"molecule": "CNC(=O)c1cc2c(Oc3ccc(NC(=S)NC(=O)Cc4ccccc4)cc3F)ccnc2cc1OC.CS(=O)(=O)O", "note": "[Example 1, mesylic acid salt of 4-(2-fluoro-4-(3-(2-phenylacetyl)thioureido)phenoxy)-7-methoxy-N-methylquinoline-6-carboxamide]", "values": [{"measurement": "change in examinations by XRD and TG-DTA", "setting": "[1]", "result": "no marked change"}, {"measurement": "change in purity through the test", "setting": "[1]; all those conditions", "result": "≤ 0.1", "unit": "%"}, {"measurement": "Solubility, Taurocholic acid", "setting": "[2]; 20-mM aqueous taurocholic acid solution", "result": 120, "unit": "µg/mL"}, {"measurement": "Solubility, FeSSIF", "setting": "[2]; FeSSIF", "result": 11, "unit": "µg/mL"}, {"measurement": "Solubility, Dissolution-test second liquid", "setting": "[2]; dissolution-test second liquid according to The Japanese Pharmacopoeia", "result": 1.0, "unit": "µg/mL"}, {"measurement": "Solubility, Purified water", "setting": "[2]; purified water", "result": 35, "unit": "µg/mL"}]}
